Here are results for four compounds from patent US7582656B2, “Guanidine derivatives and therapeutic uses thereof” (Merck Patent Gesellschaft, priority 2004, dated 2009).

The subject of one data set is human CETP promoter. As to the kind of experiment: luciferase reporter under the control of the human CETP promoter, inhibition of CETP expression. As to conditions: final concentration of 15 μM, incubated overnight, Steady Glo luciferase read by luminometer. The data set is classed as cell-based. As to the method: The stably transfected cell line (luciferase under the control of the human CETP promoter) is maintained in the growth medium (DMEM/Hepes, F12, Glutamax, FBS and geneticin) incubated at 37° C., 95% humidity and 5% CO2 to the point of confluence. The cells are then rinsed with PBS and detached with a trypsin/EDTA mixture. The medium is changed every 2 to 3 days.
The resuspended cells are diluted and counted, and then distributed in microplate (96) wells.
About 20 000 cells per well are distributed and incubated overnight at 37° C. with 5% CO2.
The compounds of the present invention are diluted to a final concentration of 15 μM and distributed in the plates containing the cells.
The plates are incubated overnight at 37° C. with 5% CO2.
The medium covering the cells is drawn off and 100 μl of Steady Glo luciferase (DMEM without phenol red/Steady Glo, V/V) are added to the cells.
The plates are sealed with a film and left in the dark for about 20 minutes at room temperature.
The plates are then read using a luminometer (1 sec/well).
The inhibition of CETP expression by the products is expressed as a percentage of the control: […]
On the technique in general: Reporter assays use an easily measured gene product as a stand-in for the process of interest.

Data set [1] relates to stably transfected cell line. As to the kind of experiment: neutral red cellular toxicity check of the cultures. The data set is classed as cell-based. As to conditions: neutral red 3 hours at 37° C., read at 540 nm. As to the method: On another batch of plates not treated with Steady Glo, the state of the cultures is checked by microscope. The culture medium is removed and 100 μl of medium comprising neutral red are added for 3 hours at 37° C.
The medium is then removed and replaced for one minute with 100 μl of formaldehyde-calcium (10 ml of 37% formaldehyde+calcium chloride dihydrate 10 g qs 1 L).
The plate is emptied and 100 μl of acetic acid-ethanol mixture (10 ml of glacial acetic acid+500 ml of absolute ethanol qs 1 L) are added to each well for 15 minutes with stirring.
The plates are then read at 540 nm. The stronger the coloration, […].

With `COCCOc1ccc(N=C(NCCCN)N2CCC(C)CC2)cc1` [Example 31, N-(3-Aminopropyl)-N′-[4-(2-methoxyethoxy)phenyl]-4-methylpiperidine-1-carboxamidine], the “activity expressed as a percentage of the control” value (shortened to “activity expressed as a percentage”) in the data set on human CETP promoter is given as 30%. Besides, the cellular toxicity result in data set [1] is “No cellular toxicity is detected”.

With `CC(C)CCN=C(NCC(C)(C)CN)Nc1ccc(OCc2ccccc2)cc1` [Example 5, N-(3-Amino-2,2-dimethylpropyl)-N′-(4-benzyloxyphenyl)-N″-(3-methylbutyl)-guanidine], the “activity expressed as a percentage” value in the data set on human CETP promoter turned out to be 46%. Besides, the cellular toxicity result in data set [1] is given as “No cellular toxicity is detected”.

As for `CCC1CCCCN1C(=Nc1ccc(OCc2ccc(C(C)(C)C)cc2)cc1)NCCCN` (centres unmarked) [Example 61, N-(3-Aminopropyl)-N′-[4-(4-tert-butylbenzyloxy)phenyl]-2-ethylpiperidine-1-carboxamidine], the “activity expressed as a percentage” value in the data set on human CETP promoter is 33%. Further, the cellular toxicity entry in data set [1] is “No cellular toxicity is detected”.

Take `NCCCNC(=Nc1ccc(OCCCC(F)(F)F)cc1)N1CCC(Cc2ccccc2)CC1` [Example 95, N-(3-Aminopropyl)-4-benzyl-N′-[4-(4,4,4-trifluorobutoxy)phenyl]piperidine-1-carboxamidine]: in the data set with human CETP promoter, the “activity expressed as a percentage” value was found to be 16%. The cellular toxicity result in data set [1] is on record as “No cellular toxicity is detected”.
